Data set [1] has as its target human serum albumin (HSA) (Homo sapiens, UniProt P02768). Briefly: Fluorescence ligand titration of HSA: quenching of intrinsic protein (Trp214) fluorescence, fitted Kd, n and FRET efficiency. How it is done:
For absorbance and fluorescence, solutions of the ligand, protein, and protein‐ligand complexes at different concentrations were prepared using PBS 1x buffer. […] The fluorescence intensities of protein‐ligand complexes were corrected for inner‐filter effects based on the absorbance of the ligands at the excitation and emission wavelengths ( IDA,cor=IDA10^(Absex+Absem)/2 ).^[ [19] ^] The fluorescence of the ligands in the absence of HSA was also recorded at 100 µM concentration. Spectral overlaps used to compute FRET rates were computed from the measured area‐normalized D emission and A absorption spectra and are reported in the Supporting Information. Protein and ligand solutions were freshly prepared, and titrations were carried out in the cuvette right before the measurement. The average of three measurements for the complexes at each ligand concentration was used to plot the spectra and compute FRET efficiencies following this formula: (10) E=1−IDA/ID where IDA is the intensity of the complex and ID the intensity of HSA in the absence of ligand.
Efficiencies were corrected based on the percentage of protein‐ligand complex formed in each solution, based on the measured Kd values, then final efficiencies were averaged over the three concentrations.

For a further data set, the system named is HSA. The settings on record: cited from earlier work.
[2] abbreviates: Kd, excitation 280 nm, IFE-corrected.
[3] abbreviates: Kd, excitation 280 nm, no correction.
[4] abbreviates: Kd, excitation 295 nm, no correction.
Where [5] appears, read: dissociation binding constant Kd, 5 µM HSA, PBS 1x, 25 °C, 295 nm excitation, IFE-corrected (carprofen: 280 nm).
[6] abbreviates: 5 µM HSA, PBS 1x, 295 nm excitation, IFE-corrected (carprofen: 280 nm).
The mark [7] stands for this setting: corrected by fraction of ligand-bound protein, 295 nm excitation, IFE-corrected (carprofen: 280 nm).
Setting [8] is: excitation 280 nm, IFE-corrected.
Setting [9] is: excitation 280 nm, no correction.
Where [10] appears, read: excitation 295 nm, IFE-corrected.
Where [11] appears, read: excitation 295 nm, no correction.

“And” between values parts separate entries of the source, which are not always exact repeats. Equal values may be shown once. Read-outs that look alike come from different tables or passages of the source.

human serum albumin (HSA), sequence (P02768 25-609): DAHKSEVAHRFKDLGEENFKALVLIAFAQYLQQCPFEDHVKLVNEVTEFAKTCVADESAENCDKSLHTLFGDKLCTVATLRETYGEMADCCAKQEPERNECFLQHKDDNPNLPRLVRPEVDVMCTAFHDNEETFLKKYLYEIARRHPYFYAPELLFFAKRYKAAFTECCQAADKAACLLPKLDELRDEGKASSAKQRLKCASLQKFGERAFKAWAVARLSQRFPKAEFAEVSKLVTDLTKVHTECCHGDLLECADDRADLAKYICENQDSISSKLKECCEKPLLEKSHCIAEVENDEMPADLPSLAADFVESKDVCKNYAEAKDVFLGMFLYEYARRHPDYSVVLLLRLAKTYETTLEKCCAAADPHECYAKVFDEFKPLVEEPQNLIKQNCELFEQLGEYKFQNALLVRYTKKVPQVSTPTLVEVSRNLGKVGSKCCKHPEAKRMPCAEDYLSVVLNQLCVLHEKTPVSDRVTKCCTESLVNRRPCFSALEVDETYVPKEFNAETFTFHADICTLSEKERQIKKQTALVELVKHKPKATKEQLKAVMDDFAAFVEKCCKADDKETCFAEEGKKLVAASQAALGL

For orientation: Kd means the free concentration of one partner at which half of the binding sites on the other are occupied at equilibrium, for simple one-to-one binding. As for `Oc1cccc2ccccc12` [1‐naphthol], the Eexp in data set [1] was 0.83± 0.01 and 0.46± 0.05 and 0.79± 0.03 and 0.54± 0.03. Further, the “experimental FRET efficiency E (Eexp)” value in data set [1] is 0.46± 0.05 and 0.46. In data set [1], the “measured FRET efficiency” value is given as 46%. Also, the “solute binding parameter n (Hill coefficient)” value (from here on “solute binding parameter n”) in data set [1] is reported as 0.73. Besides, the Kd in data set [1] (setting [2]) came to 128 µM; in data set [1] (setting [3]), 104 µM; in data set [1] (setting [4]), 105 µM; in data set [1] (setting [5]), 137 µM.

For `Oc1ccc2ccccc2c1` [2‐naphthol], the “solute binding parameter n” value in data set [1] (setting [6]) amounted to 0.71. Further, the Kd was found to be 64.5 µM in data set [1] (setting [2]), 77 µM in data set [1] (setting [3]), 6.9 µM in data set [1] (setting [4]) and 6.6 µM in data set [1] (setting [5]). The “experimental FRET efficiency E (Eexp)” value is on record as 0.80 in data set [1] (setting [7]) and 0.80 ± 0.03 in data set [1] (corrected by fraction of ligand-bound protein, 295 nm excitation, IFE-corrected (carprofen: 280 nm), listed as 2-Naphthol). Besides, the Eexp in data set [1] (setting [8]) is 0.71± 0.02; in data set [1] (setting [9]), 0.87± 0.03; in data set [1] (setting [10]), 0.80 ± 0.03; in data set [1] (setting [11]), 0.82± 0.03. In addition, the “measured FRET efficiency” value in data set [1] (from fluorescence data) is on record as 80%.

Regarding `C[C@H](C(=O)O)c1ccc2c(c1)[nH]c1ccc(Cl)cc12` [(S)‐carprofen], in data set [1] (setting [6]), the “solute binding parameter n” value is listed as 0.48. In addition, the Kd in data set [1] (setting [3]) is 3 µM; in data set [1] (setting [4]) it was 2.8 µM; in data set [1] (setting [5]) it was 1.8 µM; with HSA (read-out: Kd previous reports), 0.2 to 0.9 µM. Further, the “experimental FRET efficiency E (Eexp)” value in data set [1] (setting [7]) is reported as 0.81; in data set [1] (corrected by fraction of ligand-bound protein, 295 nm excitation, IFE-corrected (carprofen: 280 nm), listed as Carprofen), 0.81 ± 0.03. In addition, the Eexp in data set [1] (setting [8]) stood at 0.81 ± 0.03; in data set [1] (setting [9]), 0.89± 0.02; in data set [1] (setting [10]), 0.42± 0.04; in data set [1] (setting [11]), 0.71± 0.03. Also, the “measured FRET efficiency” value in data set [1] (from fluorescence data) is 81%.

As for `O=C(O)c1c2ccccc2nc2ccccc12` [ACA, 9‐acridinecarboxylic acid], the “solute binding parameter n” value in data set [1] (setting [6]) came out at 0.67. The Kd turned out to be 17.5 µM in data set [1] (setting [2]), 20.9 µM in data set [1] (setting [3]), 18.3 µM in data set [1] (setting [4]) and 15.5 µM in data set [1] (setting [5]). For the same molecule, the “experimental FRET efficiency E (Eexp)” value in data set [1] (setting [7]) is on record as 0.63. Also, the Eexp stood at 0.64± 0.02 in data set [1] (setting [8]), 0.75± 0.02 in data set [1] (setting [9]), 0.63 ± 0.02 in data set [1] (setting [10]) and 0.72± 0.02 in data set [1] (setting [11]). The “measured FRET efficiency” value in data set [1] (from fluorescence data) is 63%.

In the case of `NCCNc1cccc2ccccc12` [NNE, N‐(1‐naphthyl)ethylenediamine], in data set [1] (setting [6]), the “solute binding parameter n” value came to 0.33. In addition, the Kd was 3.9 µM in data set [1] (setting [2]), 5.6 µM in data set [1] (setting [3]), 5 µM in data set [1] (setting [4]) and 3.5 µM in data set [1] (setting [5]). For the same molecule, the “experimental FRET efficiency E (Eexp)” value in data set [1] (setting [7]) was found to be 0.55; in data set [1] (corrected by fraction of ligand-bound protein, 295 nm excitation, IFE-corrected (carprofen: 280 nm), listed as N-(1-Naphthyl)ethylenediamine) it was 0.55 ± 0.02. Besides, the Eexp in data set [1] (setting [8]) is on record as 0.45± 0.01; in data set [1] (setting [9]), 0.57± 0.03; in data set [1] (setting [10]), 0.55 ± 0.02; in data set [1] (setting [11]), 0.67± 0.03. Also, the “measured FRET efficiency” value in data set [1] (from fluorescence data) is recorded as 55%.

With `O=C(O)COc1cccc2cccnc12` [QAA, (quinoline‐8‐yloxy)‐acetic acid], the “solute binding parameter n” value in data set [1] (setting [6]) stood at 0.76. Besides, the Kd in data set [1] (setting [2]) was 74.5 µM; in data set [1] (setting [3]), 75.9 µM; in data set [1] (Kd, excitation 295 nm, IFE-corrected), 48.1 µM; in data set [1] (setting [4]), 54.8 µM; in data set [1] (setting [5]), 48 µM. Also, the “experimental FRET efficiency E (Eexp)” value in data set [1] (setting [7]) is on record as 0.60; in data set [1] (corrected by fraction of ligand-bound protein, 295 nm excitation, IFE-corrected (carprofen: 280 nm), listed as (Quinolin-8-yloxy)-acetic acid) it was 0.60 ± 0.01. In addition, the Eexp in data set [1] (setting [8]) is 0.68± 0.01; in data set [1] (setting [9]), 0.80± 0.01; in data set [1] (setting [10]) it was 0.60 ± 0.01; in data set [1] (setting [11]) it was 0.76± 0.01. Besides, the “measured FRET efficiency” value in data set [1] (from fluorescence data) came to 60%.

Consider `COc1ccc2c(c1)c(CC(=O)O)c(C)n2C(=O)c1ccc(Cl)cc1` [indomethacin], for which, in the data set on HSA (read-out: Kd previously reported value), the Kd is 6.1 µM.

As for `O=C(O)c1c2ccccc2nc2ccccc12` [protonated ACA, 9-Acridinecarboxylic acid (protonated)], the “experimental FRET efficiency E (Eexp)” value in data set [1] (setting [7]) stood at 0.63 ± 0.02.

Source of the values: PMC12716216, “Characterization of Ligand Binding in Human Serum Albumin from Atomistic Energy Transfer Simulations” (Small Methods, 2025).
